Bridge positions count the residues as written; N and C are the ends. Peptide text beside a SMILES is read from it. * marks the point of attachment. X2 = OC[C@H]1O[C@H](O[C@H]2[C@@H](O)[C@H](O)[C@@H](CO)O[C@@H]2*)[C@@H](O)[C@@H](O)[C@@H]1O; αMan = OC[C@H]1O[C@H](*)[C@@H](O)[C@@H](O)[C@@H]1O
Target: T1, thermolysin (Bacillus thermoproteolyticus, UniProt P00800)
T1 sequence (P00800 233-548): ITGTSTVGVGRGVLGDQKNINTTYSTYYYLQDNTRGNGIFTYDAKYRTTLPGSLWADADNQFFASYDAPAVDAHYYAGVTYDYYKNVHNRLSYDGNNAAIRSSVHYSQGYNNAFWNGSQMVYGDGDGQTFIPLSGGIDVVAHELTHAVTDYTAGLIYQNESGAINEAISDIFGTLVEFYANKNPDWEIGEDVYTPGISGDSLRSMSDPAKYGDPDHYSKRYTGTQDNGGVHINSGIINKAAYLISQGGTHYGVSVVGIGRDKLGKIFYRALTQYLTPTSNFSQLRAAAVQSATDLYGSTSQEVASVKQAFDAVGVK
Assay: Proteolytic stability: half-life to thermolysin degradation
Assay type: in vitro ADME
Conditions: for Change in Half-Life to Thermolysin Degradation: glyco-variant minus its corresponding unglycosylated CBM (e.g. 2-1), *** not used in the correlation plot; for half-life: thermolysin (isolated protease), thermolysin degradation, mean of three trials ± SD, procedures as described previously (ESI ref 18)
Procedure: All error bars reported are standard deviations of data achieved from three separate trials.
cellulose that were determined in accordance with our procedures as described previously 18.
The results are presented as mean of three trials ± SD. *Denotes an averaged value of four trials

Compound	Change in Half-Life to Thermolysin Degradation	half-life
CC[C@H](C)[C@@H]1NC(=O)CNC(=O)CNC(=O)[C@@H](NC(=O)[C@H](CCC(N)=O)NC(=O)CNC(=O)[C@H](Cc2ccc(O)cc2)NC(=O)[C@H](Cc2c[nH]cn2)NC(=O)[C@H](CO[C@H]2O[C@H](CO)[C@@H](O)[C@H](O)[C@@H]2O)NC(=O)[C@H](C)NC(=O)[C@@H](N)[C@@H](C)O)CSSC[C@@H]2NC(=O)[C@H]([C@@H](C)O)NC(=O)[C@H]([C@@H](C)O)NC(=O)CNC(=O)[C@H](CO)NC(=O)[C@H](C)NC(=O)[C@H](CSSC[C@@H](C(=O)N[C@@H](CC(C)C)C(=O)O)NC(=O)[C@H](CCC(N)=O)NC(=O)[C@H](CO)NC(=O)[C@H](Cc3ccc(O)cc3)NC(=O)[C@H](Cc3ccc(O)cc3)NC(=O)[C@@H]3CCCN3C(=O)[C@H](CC(N)=O)NC(=O)[C@H](CC(C)C)NC(=O)[C@H](C(C)C)NC(=O)[C@H](CCC(N)=O)NC2=O)NC(=O)[C@H](C(C)C)NC(=O)[C@H]([C@@H](C)O)NC(=O)[C@@H]2CCCN2C(=O)CNC(=O)[C@H](CO)NC(=O)[C@H](Cc2ccc(O)cc2)NC(=O)CNC1=O [CBM variant 7] (H-TAS(αMan)HYGQCGGIGYSGPTVCASGTTCQVLNPYYSQCL-OH; disulfide 8-25, 19-35)	6.6 min	16.2 ± 3 min
CC[C@H](C)[C@@H]1NC(=O)CNC(=O)CNC(=O)[C@@H](NC(=O)[C@H](CCC(N)=O)NC(=O)CNC(=O)[C@H](Cc2ccc(O)cc2)NC(=O)[C@H](Cc2c[nH]cn2)NC(=O)[C@H](CO)NC(=O)[C@H](CCC(N)=O)NC(=O)[C@@H](N)[C@@H](C)O)CSSC[C@@H]2NC(=O)[C@H]([C@@H](C)O)NC(=O)[C@H]([C@@H](C)O)NC(=O)CNC(=O)[C@H](CO)NC(=O)[C@H](C)NC(=O)[C@H](CSSC[C@@H](C(=O)N[C@@H](CC(C)C)C(=O)O)NC(=O)[C@H](CCC(N)=O)NC(=O)[C@H](CO)NC(=O)[C@H](Cc3ccc(O)cc3)NC(=O)[C@H](Cc3ccc(O)cc3)NC(=O)[C@@H]3CCCN3C(=O)[C@H](CC(N)=O)NC(=O)[C@H](CC(C)C)NC(=O)[C@H](C(C)C)NC(=O)[C@H](CCC(N)=O)NC2=O)NC(=O)[C@H](C(C)C)NC(=O)[C@H]([C@@H](C)O)NC(=O)[C@@H]2CCCN2C(=O)CNC(=O)[C@H](CO)NC(=O)[C@H](Cc2ccc(O)cc2)NC(=O)CNC1=O [CBM variant 1] (H-TQSHYGQCGGIGYSGPTVCASGTTCQVLNPYYSQCL-OH; disulfide 8-25, 19-35)	–	13.8 ± 1.2 min
CC[C@H](C)[C@@H]1NC(=O)CNC(=O)CNC(=O)[C@@H](NC(=O)[C@H](CCC(N)=O)NC(=O)CNC(=O)[C@H](Cc2ccc(O)cc2)NC(=O)[C@H](Cc2c[nH]cn2)NC(=O)[C@H](CO)NC(=O)[C@H](C)NC(=O)[C@@H](N)[C@@H](C)O)CSSC[C@@H]2NC(=O)[C@H]([C@@H](C)O)NC(=O)[C@H]([C@@H](C)O)NC(=O)CNC(=O)[C@H](CO)NC(=O)[C@H](C)NC(=O)[C@H](CSSC[C@@H](C(=O)N[C@@H](CC(C)C)C(=O)O)NC(=O)[C@H](CCC(N)=O)NC(=O)[C@H](CO)NC(=O)[C@H](Cc3ccc(O)cc3)NC(=O)[C@H](Cc3ccc(O)cc3)NC(=O)[C@@H]3CCCN3C(=O)[C@H](CC(N)=O)NC(=O)[C@H](CC(C)C)NC(=O)[C@H](C(C)C)NC(=O)[C@H](CCC(N)=O)NC2=O)NC(=O)[C@H](C(C)C)NC(=O)[C@H]([C@@H](C)O)NC(=O)[C@@H]2CCCN2C(=O)CNC(=O)[C@H](CO)NC(=O)[C@H](Cc2ccc(O)cc2)NC(=O)CNC1=O [CBM variant 6] (H-TASHYGQCGGIGYSGPTVCASGTTCQVLNPYYSQCL-OH; disulfide 8-25, 19-35)	–	9.6 ± 2.4 min
CC[C@H](C)[C@@H]1NC(=O)CNC(=O)CNC(=O)[C@@H](NC(=O)[C@H](CCC(N)=O)NC(=O)CNC(=O)[C@H](C)NC(=O)[C@H](Cc2c[nH]cn2)NC(=O)[C@H](CO)NC(=O)[C@H](CCC(N)=O)NC(=O)[C@@H](N)[C@@H](C)O)CSSC[C@@H]2NC(=O)[C@H]([C@@H](C)O)NC(=O)[C@H]([C@@H](C)O)NC(=O)CNC(=O)[C@H](CO)NC(=O)[C@H](C)NC(=O)[C@H](CSSC[C@@H](C(=O)N[C@@H](CC(C)C)C(=O)O)NC(=O)[C@H](CCC(N)=O)NC(=O)[C@H](CO)NC(=O)[C@H](Cc3ccc(O)cc3)NC(=O)[C@H](Cc3ccc(O)cc3)NC(=O)[C@@H]3CCCN3C(=O)[C@H](CC(N)=O)NC(=O)[C@H](CC(C)C)NC(=O)[C@H](C(C)C)NC(=O)[C@H](CCC(N)=O)NC2=O)NC(=O)[C@H](C(C)C)NC(=O)[C@H]([C@@H](C)O)NC(=O)[C@@H]2CCCN2C(=O)CNC(=O)[C@H](CO)NC(=O)[C@H](Cc2ccc(O)cc2)NC(=O)CNC1=O [CBM variant 10] (H-TQSHAGQCGGIGYSGPTVCASGTTCQVLNPYYSQCL-OH; disulfide 8-25, 19-35)	–	4.8 ± 1.2 min
CC[C@H](C)[C@@H]1NC(=O)CNC(=O)CNC(=O)[C@@H](NC(=O)[C@H](CCC(N)=O)NC(=O)CNC(=O)[C@H](Cc2ccc(O)cc2)NC(=O)[C@H](C)NC(=O)[C@H](CO[C@H]2O[C@H](CO)[C@@H](O)[C@H](O)[C@@H]2O)NC(=O)[C@H](CCC(N)=O)NC(=O)[C@@H](N)[C@@H](C)O)CSSC[C@@H]2NC(=O)[C@H]([C@@H](C)O)NC(=O)[C@H]([C@@H](C)O)NC(=O)CNC(=O)[C@H](CO)NC(=O)[C@H](C)NC(=O)[C@H](CSSC[C@@H](C(=O)N[C@@H](CC(C)C)C(=O)O)NC(=O)[C@H](CCC(N)=O)NC(=O)[C@H](CO)NC(=O)[C@H](Cc3ccc(O)cc3)NC(=O)[C@H](Cc3ccc(O)cc3)NC(=O)[C@@H]3CCCN3C(=O)[C@H](CC(N)=O)NC(=O)[C@H](CC(C)C)NC(=O)[C@H](C(C)C)NC(=O)[C@H](CCC(N)=O)NC2=O)NC(=O)[C@H](C(C)C)NC(=O)[C@H]([C@@H](C)O)NC(=O)[C@@H]2CCCN2C(=O)CNC(=O)[C@H](CO)NC(=O)[C@H](Cc2ccc(O)cc2)NC(=O)CNC1=O [CBM variant 9] (H-TQS(αMan)AYGQCGGIGYSGPTVCASGTTCQVLNPYYSQCL-OH; disulfide 8-25, 19-35)	25.8 min	39 ± 3 min
CC[C@H](C)[C@@H]1NC(=O)CNC(=O)CNC(=O)[C@@H](NC(=O)[C@H](CCC(N)=O)NC(=O)CNC(=O)[C@H](Cc2ccc(O)cc2)NC(=O)[C@H](Cc2c[nH]cn2)NC(=O)[C@H](CO[C@H]2O[C@H](CO)[C@@H](O)[C@H](O)[C@@H]2O[C@H]2O[C@H](CO)[C@@H](O)[C@H](O)[C@@H]2O)NC(=O)[C@H](CCC(N)=O)NC(=O)[C@@H](N)[C@@H](C)O)CSSC[C@@H]2NC(=O)[C@H]([C@@H](C)O)NC(=O)[C@H]([C@@H](C)O)NC(=O)CNC(=O)[C@H](CO)NC(=O)[C@H](C)NC(=O)[C@H](CSSC[C@@H](C(=O)N[C@@H](CC(C)C)C(=O)O)NC(=O)[C@H](CCC(N)=O)NC(=O)[C@H](CO)NC(=O)[C@H](Cc3ccc(O)cc3)NC(=O)[C@H](Cc3ccc(O)cc3)NC(=O)[C@@H]3CCCN3C(=O)[C@H](CC(N)=O)NC(=O)[C@H](CC(C)C)NC(=O)[C@H](C(C)C)NC(=O)[C@H](CCC(N)=O)NC2=O)NC(=O)[C@H](C(C)C)NC(=O)[C@H]([C@@H](C)O)NC(=O)[C@@H]2CCCN2C(=O)CNC(=O)[C@H](CO)NC(=O)[C@H](Cc2ccc(O)cc2)NC(=O)CNC1=O [CBM variant 3] (H-TQS(X2)HYGQCGGIGYSGPTVCASGTTCQVLNPYYSQCL-OH; disulfide 8-25, 19-35)	114 min	128 ± 3.6 min
CC[C@H](C)[C@@H]1NC(=O)CNC(=O)CNC(=O)[C@@H](NC(=O)[C@H](CCC(N)=O)NC(=O)CNC(=O)[C@H](Cc2ccc(O)cc2)NC(=O)[C@H](Cc2c[nH]cn2)NC(=O)[C@H](CS[C@H]2O[C@H](CO)[C@@H](O)[C@H](O)[C@@H]2O[C@H]2O[C@H](CO)[C@@H](O)[C@H](O)[C@@H]2O)NC(=O)[C@H](CCC(N)=O)NC(=O)[C@@H](N)[C@@H](C)O)CSSC[C@@H]2NC(=O)[C@H]([C@@H](C)O)NC(=O)[C@H]([C@@H](C)O)NC(=O)CNC(=O)[C@H](CO)NC(=O)[C@H](C)NC(=O)[C@H](CSSC[C@@H](C(=O)N[C@@H](CC(C)C)C(=O)O)NC(=O)[C@H](CCC(N)=O)NC(=O)[C@H](CO)NC(=O)[C@H](Cc3ccc(O)cc3)NC(=O)[C@H](Cc3ccc(O)cc3)NC(=O)[C@@H]3CCCN3C(=O)[C@H](CC(N)=O)NC(=O)[C@H](CC(C)C)NC(=O)[C@H](C(C)C)NC(=O)[C@H](CCC(N)=O)NC2=O)NC(=O)[C@H](C(C)C)NC(=O)[C@H]([C@@H](C)O)NC(=O)[C@@H]2CCCN2C(=O)CNC(=O)[C@H](CO)NC(=O)[C@H](Cc2ccc(O)cc2)NC(=O)CNC1=O [CBM variant 34] (H-TQC(X2)HYGQCGGIGYSGPTVCASGTTCQVLNPYYSQCL-OH; disulfide 8-25, 19-35)	–	10.8 ± 1.2 min
CC[C@H](C)[C@@H]1NC(=O)CNC(=O)CNC(=O)[C@@H](NC(=O)[C@H](CCC(N)=O)NC(=O)CNC(=O)[C@H](Cc2ccc(O)cc2)NC(=O)[C@H](C)NC(=O)[C@H](CO)NC(=O)[C@H](CCC(N)=O)NC(=O)[C@@H](N)[C@@H](C)O)CSSC[C@@H]2NC(=O)[C@H]([C@@H](C)O)NC(=O)[C@H]([C@@H](C)O)NC(=O)CNC(=O)[C@H](CO)NC(=O)[C@H](C)NC(=O)[C@H](CSSC[C@@H](C(=O)N[C@@H](CC(C)C)C(=O)O)NC(=O)[C@H](CCC(N)=O)NC(=O)[C@H](CO)NC(=O)[C@H](Cc3ccc(O)cc3)NC(=O)[C@H](Cc3ccc(O)cc3)NC(=O)[C@@H]3CCCN3C(=O)[C@H](CC(N)=O)NC(=O)[C@H](CC(C)C)NC(=O)[C@H](C(C)C)NC(=O)[C@H](CCC(N)=O)NC2=O)NC(=O)[C@H](C(C)C)NC(=O)[C@H]([C@@H](C)O)NC(=O)[C@@H]2CCCN2C(=O)CNC(=O)[C@H](CO)NC(=O)[C@H](Cc2ccc(O)cc2)NC(=O)CNC1=O [CBM variant 8] (H-TQSAYGQCGGIGYSGPTVCASGTTCQVLNPYYSQCL-OH; disulfide 8-25, 19-35)	–	13.2 ± 3.6 min

Reference: article PMC5580309, “Molecular-scale features that govern the effects of O-glycosylation on a carbohydrate-binding module” (Chemical Science, 2015)
